Assay results from PMC3953730 (FEBS Open Bio, 2014).

Target: β-secretase 1 (BACE1) (Homo sapiens, UniProt P56817)
Test: in vitro fluorogenic peptide cleavage assay, dose response
Format: biochemical

Chain of β-secretase 1 (BACE1) (P56817 46-457): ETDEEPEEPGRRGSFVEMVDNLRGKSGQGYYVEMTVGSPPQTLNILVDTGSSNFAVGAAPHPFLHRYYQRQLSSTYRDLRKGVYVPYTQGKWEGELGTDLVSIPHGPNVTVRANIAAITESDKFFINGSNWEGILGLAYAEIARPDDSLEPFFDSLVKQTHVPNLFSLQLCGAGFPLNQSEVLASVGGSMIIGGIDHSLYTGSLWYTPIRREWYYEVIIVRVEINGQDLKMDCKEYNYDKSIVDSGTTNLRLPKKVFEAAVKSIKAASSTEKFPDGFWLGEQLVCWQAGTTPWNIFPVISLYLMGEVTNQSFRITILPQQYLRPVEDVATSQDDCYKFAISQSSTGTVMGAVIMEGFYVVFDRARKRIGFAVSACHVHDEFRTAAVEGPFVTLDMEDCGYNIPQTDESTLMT

IC50: ~250 nM
SMILES: O=P(O)(O)O[C@H]1[C@H](OP(=O)(O)O)[C@@H](OP(=O)(O)O)[C@H](OP(=O)(O)O)[C@@H](OP(=O)(O)O)[C@H]1OP(=O)(O)O [IP6, myo-inositol hexakisphosphate]
